Source: US20210395210A1, “INHIBITION OF BACTERIAL CHAPERONIN SYSTEMS” (THE TRUSTEES OF INDIANA UNIVERSITY, priority 2018, published 2021)

Columns and labels:
[1] = Kidney cell viability assay (Alamar Blue); conditions: human
Experimental: HEK 293 cells were maintained in MEM medium (Corning Cellgro, 10-009 CV) supplemented with 10% FBS (Sigma, F2242). […] Cells at 80% confluence were harvested and diluted in growth medium, then 45 μL of the THLE-3 cells (1,500 cells/well) or HEK 293 cells (1,500 cells/well) were dispensed per well, and plates were sealed with “Breathe Easy” oxygen permeable membranes (Diversified Biotech) and incubated at 37° C., 5% CO2, for 24 h.

[2] = target: T1, E. coli GroEL/ES (Escherichia coli, UniProt P0A6F5); experiment: GroEL/ES-mediated dRho refolding assay; assay type: biochemical; conditions: for log(IC50) GroEL/ES-dRho Refolding: log of IC50 (μM scale), with standard deviation
T1 construct: made in house; host or cells: GroEL in E. coli DH5α; GroES in E. coli BL21 (DE3)
T1 sequence (P0A6F5 2-548): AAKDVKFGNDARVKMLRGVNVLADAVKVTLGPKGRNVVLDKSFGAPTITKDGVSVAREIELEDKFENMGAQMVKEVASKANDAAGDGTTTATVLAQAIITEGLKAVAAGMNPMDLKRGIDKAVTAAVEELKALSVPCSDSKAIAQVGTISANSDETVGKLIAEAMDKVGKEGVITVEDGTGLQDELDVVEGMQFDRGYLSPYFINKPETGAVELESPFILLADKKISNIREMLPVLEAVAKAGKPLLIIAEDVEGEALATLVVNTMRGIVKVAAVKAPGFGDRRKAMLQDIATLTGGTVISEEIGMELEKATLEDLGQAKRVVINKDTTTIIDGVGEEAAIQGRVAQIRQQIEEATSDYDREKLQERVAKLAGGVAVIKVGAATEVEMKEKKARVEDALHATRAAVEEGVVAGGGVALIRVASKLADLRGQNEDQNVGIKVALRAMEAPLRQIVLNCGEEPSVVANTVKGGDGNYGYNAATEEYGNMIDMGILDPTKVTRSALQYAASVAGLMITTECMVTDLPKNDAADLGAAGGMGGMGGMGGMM
Experimental: Reagent preparation: For this assay, five primary reagent stocks were prepared: 1) GroEUES-dRho binary complex stock; 2) ATP initiation stock; 3) thiocyanate enzymatic assay stock; 4) formaldehyde quench stock; 5) ferric nitrate reporter stock. Denatured rhodanese (dRho) was prepared by 3-fold dilution of rhodanese (Roche product #R1756, diluted to 10 mg/mL with H2O) with denaturant buffer (12 M Urea, 50 mM Tris-HCl, pH 7.4, and 10 mM DTT). Rhodanese was completely denatured by incubating at room temperature for 45 min. The binary complex solution was prepared by slowly adding the dRho stock to a stirring stock of concentrated GroEL in modified folding buffer (50 mM Tris-HCl, pH 7.4, 50 mM KCl, 10 mM MgCl2, 5 mM Na2S2O3, and 1 mM DTT). The solution was centrifuged at 16,000×g for 5 minutes, and the supernatant was collected and added to a solution of GroES in modified folding buffer to give final protein concentrations of 100 nM GroEL, 120 nM GroES, and 80 nM dRho. The binary complex stock was prepared immediately prior to use. For the ATP initiation stock, ATP solid was diluted into modified folding buffer to a final concentration of 2.0 mM. The thiocyanate enzymatic assay stock was prepared to contain 70 mM KH2PO4, 80 mM KCN, and 80 mM Na2S2O3 in water. The formaldehyde quench solution contained 30% formaldehyde in water. The ferric nitrate reporter stock contained 8.5% w/v Fe(NO3)3 and 11.3% v/v HNO3 in water.
Assay Protocol: First, 10 μL aliquots of the GroEL/ES-dRho complex stock were dispensed into clear, 384-well polystyrene plates. […] The chaperonin-mediated refolding cycle was initiated by addition of 10 μL of ATP stock (reagent concentrations during refolding cycle: 50 nM GroEL, 60 nM GroES, 40 nM dRho, 1 mM ATP, and compounds of 250 μM to 114 nM, 3-fold dilution series). After incubating for 45 minutes at 37° C. for the refolding cycle, 30 μL of the thiocyanate enzymatic assay stock was added and incubated for 60 min at R.T. for the refolded rhodenase enzymatic reporter reaction. The reporter reaction was quenched by adding 10 μL of the formaldehyde quench stock, and then 40 μL of the ferric nitrate reporter stock was added to quantify the amount of thiocyanate produced during the enzymatic reporter reaction, which is proportional to the amount of dRho refolded by GroEL/ES. After incubating at R.T. for 15 min, the absorbance by Fe(SCN)3 was measured at 460 nm using a Molecular Devices SpectraMax Plus384 microplate reader. A second set of baseline control plates were prepared analogously, but without GroEL/ES-dRho protein binary solution, to correct for possible interference from compound absorbance or turbidity. […] Results presented represent the averages of IC50 values obtained from at least quadriplicate (duplicate of duplicate) replicates.
(§1) After generating the compound library, we next employed a series of well-established biochemical assays to evaluate compound inhibitory effects against the GroEUES chaperonin system (See FIG. 6 and FIG. 7). We used E. coli GroEUES as the surrogate chaperonin system for refolding of the reporter enzymes malate dehydrogenase (MDH) and rhodanese (Rho). Briefly, binary complexes are formed between GroEL and denatured MDH or Rho, which are then refolded to their native states upon addition of ATP and the GroES co-chaperonin. Enzymatic activities of refolded native MDH or Rho act as coupled reporters of GroEUES refolding functions since in the presence of chaperonin inhibitors, no functional reporter enzymes are generated.

[3] = target: T1, E. coli GroEL/ES; experiment: GroEL/ES-mediated dMDH refolding assay; assay type: biochemical; conditions: for log(IC50) GroEL/ES-dMDH Refolding: log of IC50 (μM scale), with standard deviation
Experimental: Reagent preparation: For these assays, four primary reagent stocks were prepared: 1) GroEUES-dMDH or HSP60/10-dMDH binary complex stock; 2) ATP initiation stock; 3) EDTA quench stock; 4) MDH enzymatic assay stock. Denatured MDH (dMDH) was prepared by 2-fold dilution of MDH (5 mg/ml, soluble pig heart MDH from Roche, product #10127248001) with denaturant buffer (7 M guanidine-HCl, 200 mM Tris, pH 7.4, and 50 mM DTT). MDH was completely denatured by incubating at room temperature for 45 min. The binary complex solutions were prepared by slowly adding the dMDH stock to a stirring stock with GroEL (or HSP60) in folding buffer (50 mM Tris-HCl, pH 7.4, 50 mM KCl, 10 mM MgCl2, and 1 mM DTT), followed by addition of GroES (or HSP10). The binary complex stocks were prepared immediately prior to dispensing into the assay plates and had final protein concentrations of 83.3 nM GroEL (Mr 800 kDa) or HSP60 (Mr 400 kDa), 100 nM GroES or HSP10 (Mr 70 kDa), and 20 nM dMDH in folding buffer. For the ATP initiation stock, ATP solid was diluted into folding buffer to a final concentration of 2.5 mM. Quench solution contained 600 mM EDTA (pH 8.0). The MDH enzymatic assay stock consisted of 20 mM sodium mesoxalate and 2.4 mM NADH in reaction buffer (50 mM Tris-HCl, pH 7.4, 50 mM KCl, and 1 mM DTT).
Assay Protocol: First, 30 μL aliquots of the GroEL/ES-dMDH or HSP60/10-dMDH binary complex stocks were dispensed into clear, 384-well polystyrene plates. […] The chaperonin-mediated refolding cycles were initiated by addition of 20 μL of ATP stock (reagent concentrations during refolding cycle: 50 nM GroEL or HSP60, 60 nM GroES or HSP10, 12 nM dMDH, 1 mM ATP, and compounds of 100 μM to 46 nM, 3-fold dilution series). The refolding reactions were incubated at 37° C. […] Next, the assay was quenched by addition of 10 μL of the EDTA to final concentration of 100 mM. […] A340 nm measurements were recorded at 0.5 minutes (start point) and at successive time points until the amount of NADH consumed reached ˜90% (end point, generally between 20-35 minutes). The differences between the start and end point A340 values were used to calculate the % inhibition of the GroEL/ES or HSP60/10 machinery by the compounds. […] Results presented represent the averages of IC50 values obtained from at least quadriplicate (duplicate of duplicate) replicates.
as §1

[4] = read-out: Biochemical Assay IC50 GroEL/ES-dRho Refolding
[5] = read-out: Biochemical Assay IC50 GroEL/ES-dMDH refolding

With CC1(C)S[C@@H]2[C@H](NC(=O)[C@H](N)c3ccccc3)C(=O)N2[C@H]1C(=O)O [Ampicillin, ampicillin, reference compound] the CC50 at 48 h ([1]; HEK 293 kidney cells) was > 100 µM, the “log(IC50) GroEL/ES-dRho Refolding” value [2] was >2 and the IC50 [2, 4] was > 100 µM. The “log(IC50) GroEL/ES-dMDH Refolding” value [3] was >2 and the IC50 [3, 5] was > 100 µM.
Cc1cc(C(C#N)c2ccc(Cl)cc2)c(Cl)cc1NC(=O)c1cc(I)cc(I)c1O (stereo not drawn) [Closantel, closantel, reference compound] gave a CC50 at 48 h ([1]; HEK 293 kidney cells) of 75.9 µM, an IC50 [2] of 1.55 µM and an IC50 [2, 4] of 1.5 µM. For the same molecule, the IC50 [3] was 2.24 µM, the “inhibition in the GroEL/ES-mediated refolding assays (in words)” value ([3]; dMDH and dRho refolding assays) was “potent GroEUES inhibitors” and the IC50 [3, 5] was 2.2 µM.
For O=C(Nc1cccc(Cl)c1)c1cc(Br)cc(Br)c1O [Compound 9, 3,5-Dibromo-N-(3-chlorophenyl)-2-hydroxybenzamide], the CC50 at 48 h [1] was 18.2 µM, the “log(IC50) GroEL/ES-dRho Refolding” value [2] was 1.67 ± 0.04 and the IC50 [2, 4] was 47 µM. The “log(IC50) GroEL/ES-dMDH Refolding” value [3] was 1.38 ± 0.15 and the IC50 [3, 5] was 24 µM.
In the case of O=C(Nc1ccccc1)c1cc(Br)cc(Br)c1O [Compound 13, 3,5-Dibromo-2-hydroxy-N-phenylbenzamide], the CC50 at 48 h [1] is reported as 33.9 µM, the IC50 [2] is reported as > 100 µM and the “log(IC50) GroEL/ES-dRho Refolding” value [2] is reported as >2. The “log(IC50) GroEL/ES-dMDH Refolding” value [3] was 1.79 ± 0.10 and the IC50 [3, 5] was 61 µM.
With O=C(Nc1ccccc1)c1ccccc1O [Compound 16, 2-Hydroxy-N-phenylbenzamide] the CC50 at 48 h [1] was > 100 µM, the “log(IC50) GroEL/ES-dRho Refolding” value [2] was >2 and the IC50 [2, 4] was > 100 µM. For the same molecule, the “log(IC50) GroEL/ES-dMDH Refolding” value [3] was >2 and the IC50 [3, 5] was > 100 µM.
With O=C(Nc1ccc(Sc2nc3ccccc3s2)c(Cl)c1)c1cc(Br)cc(Br)c1 [Compound 17, N-(4-(Benzo[d]thiazol-2-ylthio)-3-chlorophenyl)-3,5-dibromobenzamide] the CC50 at 48 h [1] was > 100 µM, the IC50 [2] was > 100 µM and the IC50 [3] was > 100 µM.
With O=C(Nc1ccc(Sc2nc3ccccc3s2)c(Cl)c1)c1cccc(Br)c1 [Compound 18, N-(4-(Benzo[d]thiazol-2-ylthio)-3-chlorophenyl)-3-bromobenzamide] the CC50 at 48 h [1] was > 100 µM, the IC50 [2] was > 100 µM and the IC50 [3] was > 100 µM.
With O=C(Nc1ccc(Sc2nc3ccccc3s2)cc1)c1cc(Br)cc(Br)c1 [Compound 20, N-(4-(Benzo[d]thiazol-2-ylthio)phenyl)-3,5-dibromobenzamide] the CC50 at 48 h [1] was > 100 µM, the IC50 [2] was > 100 µM and the IC50 [3] was > 100 µM.
In the case of O=C(Nc1ccc(Sc2nc3ccccc3s2)cc1)c1ccccc1 [Compound 22, N-(4-(Benzo[d]thiazol-2-ylthio)phenyl)benzamide], the CC50 at 48 h [1] is reported as > 100 µM, the IC50 [2] is reported as > 100 µM and the IC50 [3] is reported as > 100 µM.
For O=C(Nc1cccc(Cl)c1)c1cccc(Br)c1 [Compound 24, 3-Bromo-N-(3-chlorophenyl)benzamide], the CC50 at 48 h [1] was 51.3 µM, the IC50 [2] was > 100 µM and the “log(IC50) GroEL/ES-dRho Refolding” value [2] was >2. The IC50 [3] was > 100 µM and the “log(IC50) GroEL/ES-dMDH Refolding” value [3] was >2.
With O=C(Nc1cccc(Cl)c1)c1ccccc1 [Compound 25, N-(3-Chlorophenyl)benzamide] the CC50 at 48 h [1] was > 100 µM, the IC50 [2] was > 100 µM and the “log(IC50) GroEL/ES-dRho Refolding” value [2] was >2. For the same molecule, the IC50 [3] was > 100 µM and the “log(IC50) GroEL/ES-dMDH Refolding” value [3] was >2.
For O=C(Nc1ccccc1)c1cc(Br)cc(Br)c1 [Compound 26, 3,5-Dibromo-N-phenylbenzamide], the CC50 at 48 h [1] was > 100 µM, the IC50 [2] was > 100 µM and the “log(IC50) GroEL/ES-dRho Refolding” value [2] was >2. The IC50 [3] was > 100 µM and the “log(IC50) GroEL/ES-dMDH Refolding” value [3] was >2.
In the case of O=C(Nc1ccccc1)c1cccc(Br)c1 [Compound 27, 3-Bromo-N-phenylbenzamide], the CC50 at 48 h [1] is reported as > 100 µM, the IC50 [2] is reported as > 100 µM and the “log(IC50) GroEL/ES-dRho Refolding” value [2] is reported as >2. For the same molecule, the IC50 [3] was > 100 µM and the “log(IC50) GroEL/ES-dMDH Refolding” value [3] was >2.
For COc1c(Br)cc(Br)cc1C(=O)Nc1ccc(Sc2nc3ccccc3s2)c(Cl)c1 [Compound 29, N-(4-(Benzo[d]thiazol-2-ylthio)-3-chlorophenyl)-3,5-dibromo-2-methoxybenzamide], the CC50 at 48 h [1] was > 100 µM, the IC50 [2] was > 100 µM and the IC50 [3] was > 100 µM.
With COc1c(Br)cccc1C(=O)Nc1ccc(Sc2nc3ccccc3s2)c(Cl)c1 [Compound 30, N-(4-(Benzo[d]thiazol-2-ylthio)-3-chlorophenyl)-3-bromo-2-methoxybenzamide] the CC50 at 48 h [1] was > 100 µM, the IC50 [2] was > 100 µM and the IC50 [3] was > 100 µM.
In the case of COc1ccc(Br)cc1C(=O)Nc1ccc(Sc2nc3ccccc3s2)c(Cl)c1 [Compound 31, N-(4-(Benzo[d]thiazol-2-ylthio)-3-chlorophenyl)-5-bromo-2-methoxybenzamide], the CC50 at 48 h [1] is reported as > 100 µM, the IC50 [2] is reported as > 100 µM and the IC50 [3] is reported as > 100 µM.
For COc1ccccc1C(=O)Nc1ccc(Sc2nc3ccccc3s2)c(Cl)c1 [Compound 32, N-(4-(Benzo[d]thiazol-2-ylthio)-3-chlorophenyl)-2-methoxybenzamide], the CC50 at 48 h [1] was > 100 µM, the IC50 [2] was > 100 µM and the IC50 [3] was > 100 µM.
With COc1c(Br)cccc1C(=O)Nc1ccc(Sc2nc3ccccc3s2)cc1 [Compound 34, N-(4-(Benzo[d]thiazol-2-ylthio)phenyl)-3-bromo-2-methoxybenzamide] the CC50 at 48 h [1] was > 100 µM.
For CO[C@H]1/C=C/O[C@@]2(C)Oc3c(C)c(O)c4c(O)c(c(/C=N/N5CCN(C)CC5)c(O)c4c3C2=O)NC(=O)/C(C)=C\C=C\[C@H](C)[C@H](O)[C@@H](C)[C@@H](O)[C@@H](C)[C@H](OC(C)=O)[C@@H]1C [Rifampicin, rifampicin, reference compound], the CC50 at 48 h [1] was > 100 µM.
